The NIST ThermoML archive (doi:10.1016/j.jct.2014.07.026)
± gives the expanded uncertainty stated by the source.

Assay: mn = molality of the nth substance listed, in mol/kg
Conditions: 100 kPa, Liquid; for mass density: Vibrating tube method; for speed of sound: Frequency=2 MHz, Linear variable-path acoustic interferometer

Compound CC(C)[C@H](N)C(=O)[O-].CCCCn1cc[n+](C)c1 [1-butyl-3-methylimidazolium L-valinate] + O has a mass density (293.15 K, m1 = 0.03333) of 999.132 ± 0.11 kg/m3, a mass density (293.15 K, m1 = 0.05233) of 999.647 ± 0.11 kg/m3 and a mass density (293.15 K, m1 = 0.07111) of 1000.15 ± 0.11 kg/m3. For the same compound, the mass density (293.15 K, m1 = 0.08607) was 1000.55 ± 0.11 kg/m3, the mass density (293.15 K, m1 = 0.1001) was 1000.93 ± 0.11 kg/m3 and the mass density (293.15 K, m1 = 0.138) was 1001.93 ± 0.11 kg/m3. It also gave a mass density (293.15 K, m1 = 0.1804) of 1003.02 ± 0.11 kg/m3, a mass density (293.15 K, m1 = 0.2187) of 1004 ± 0.11 kg/m3 and a mass density (293.15 K, m1 = 0.2653) of 1005.21 ± 0.11 kg/m3. For the same compound, the mass density (293.15 K, m1 = 0.3295) was 1006.77 ± 0.11 kg/m3, the mass density (293.15 K, m1 = 0.3595) was 1007.51 ± 0.11 kg/m3 and the mass density (293.15 K, m1 = 0.4046) was 1008.61 ± 0.11 kg/m3. For the same compound, the mass density (293.15 K, m1 = 0.4561) was 1009.85 ± 0.11 kg/m3, the speed of sound (298.15 K, m1 = 0.06361) was 1509.7 ± 2.5 m/s and the speed of sound (298.15 K, m1 = 0.1178) was 1519.6 ± 2.5 m/s. The speed of sound (298.15 K, m1 = 0.1494) was 1525.3 ± 2.5 m/s, the speed of sound (298.15 K, m1 = 0.2009) was 1534.4 ± 2.5 m/s and the speed of sound (298.15 K, m1 = 0.2467) was 1542.1 ± 2.5 m/s. For the same compound, the speed of sound (298.15 K, m1 = 0.2965) was 1550.5 ± 2.5 m/s, the speed of sound (298.15 K, m1 = 0.3434) was 1558.2 ± 2.5 m/s and the speed of sound (298.15 K, m1 = 0.4049) was 1568.3 ± 2.5 m/s. It also gave a speed of sound (298.15 K, m1 = 0.4496) of 1575.2 ± 2.5 m/s, a speed of sound (298.15 K, m1 = 0.513) of 1584.9 ± 2.5 m/s and a speed of sound (298.15 K, m1 = 0.5714) of 1593.8 ± 2.6 m/s. It also gave a mass density (298.15 K, m1 = 0.03333) of 997.952 ± 0.11 kg/m3, a mass density (298.15 K, m1 = 0.05233) of 998.454 ± 0.11 kg/m3 and a mass density (298.15 K, m1 = 0.07111) of 998.947 ± 0.11 kg/m3. For the same compound, the mass density (298.15 K, m1 = 0.08607) was 999.329 ± 0.11 kg/m3, the mass density (298.15 K, m1 = 0.1001) was 999.708 ± 0.11 kg/m3 and the mass density (298.15 K, m1 = 0.138) was 1000.66 ± 0.11 kg/m3. The mass density (298.15 K, m1 = 0.1804) was 1001.72 ± 0.11 kg/m3, the mass density (298.15 K, m1 = 0.2187) was 1002.66 ± 0.11 kg/m3 and the mass density (298.15 K, m1 = 0.2653) was 1003.87 ± 0.11 kg/m3. For the same compound, the mass density (298.15 K, m1 = 0.3295) was 1005.34 ± 0.11 kg/m3, the mass density (298.15 K, m1 = 0.3595) was 1006.08 ± 0.11 kg/m3 and the mass density (298.15 K, m1 = 0.4046) was 1007.11 ± 0.11 kg/m3. It also gave a mass density (298.15 K, m1 = 0.4561) of 1008.32 ± 0.11 kg/m3, a mass density (303.15 K, m1 = 0.03333) of 996.535 ± 0.11 kg/m3 and a mass density (303.15 K, m1 = 0.05233) of 997.021 ± 0.11 kg/m3. It also gave a mass density (303.15 K, m1 = 0.07111) of 997.503 ± 0.11 kg/m3, a mass density (303.15 K, m1 = 0.08607) of 997.878 ± 0.11 kg/m3 and a mass density (303.15 K, m1 = 0.1001) of 998.242 ± 0.11 kg/m3. It also gave a mass density (303.15 K, m1 = 0.138) of 999.178 ± 0.11 kg/m3, a mass density (303.15 K, m1 = 0.1804) of 1000.22 ± 0.11 kg/m3 and a mass density (303.15 K, m1 = 0.2187) of 1001.13 ± 0.11 kg/m3. The mass density (303.15 K, m1 = 0.2653) was 1002.26 ± 0.11 kg/m3, the mass density (303.15 K, m1 = 0.3295) was 1003.73 ± 0.11 kg/m3 and the mass density (303.15 K, m1 = 0.3595) was 1004.44 ± 0.11 kg/m3. For the same compound, the mass density (303.15 K, m1 = 0.4046) was 1005.44 ± 0.11 kg/m3, the mass density (303.15 K, m1 = 0.4561) was 1006.67 ± 0.11 kg/m3 and the mass density (308.15 K, m1 = 0.03234) was 994.871 ± 0.11 kg/m3. It also gave a mass density (308.15 K, m1 = 0.05133) of 995.354 ± 0.11 kg/m3, a mass density (308.15 K, m1 = 0.06493) of 995.698 ± 0.11 kg/m3 and a mass density (308.15 K, m1 = 0.08884) of 996.286 ± 0.11 kg/m3. It also gave a mass density (308.15 K, m1 = 0.1058) of 996.698 ± 0.11 kg/m3, a mass density (308.15 K, m1 = 0.1347) of 997.389 ± 0.11 kg/m3 and a mass density (308.15 K, m1 = 0.181) of 998.492 ± 0.11 kg/m3. The mass density (308.15 K, m1 = 0.2182) was 999.371 ± 0.11 kg/m3, the mass density (308.15 K, m1 = 0.2583) was 1000.3 ± 0.11 kg/m3 and the mass density (308.15 K, m1 = 0.3177) was 1001.66 ± 0.11 kg/m3. For the same compound, the mass density (308.15 K, m1 = 0.3591) was 1002.6 ± 0.11 kg/m3, the mass density (308.15 K, m1 = 0.4041) was 1003.61 ± 0.11 kg/m3 and the mass density (308.15 K, m1 = 0.4561) was 1004.69 ± 0.11 kg/m3. The mass density (313.15 K, m1 = 0.03234) was 993.036 ± 0.11 kg/m3, the mass density (313.15 K, m1 = 0.05133) was 993.509 ± 0.11 kg/m3 and the mass density (313.15 K, m1 = 0.06493) was 993.842 ± 0.11 kg/m3. It also gave a mass density (313.15 K, m1 = 0.08884) of 994.427 ± 0.11 kg/m3, a mass density (313.15 K, m1 = 0.1058) of 994.828 ± 0.11 kg/m3 and a mass density (313.15 K, m1 = 0.1347) of 995.499 ± 0.11 kg/m3. It also gave a mass density (313.15 K, m1 = 0.181) of 996.579 ± 0.11 kg/m3, a mass density (313.15 K, m1 = 0.2182) of 997.425 ± 0.11 kg/m3 and a mass density (313.15 K, m1 = 0.2583) of 998.325 ± 0.11 kg/m3. For the same compound, the mass density (313.15 K, m1 = 0.3177) was 999.623 ± 0.11 kg/m3, the mass density (313.15 K, m1 = 0.3591) was 1000.51 ± 0.11 kg/m3 and the mass density (313.15 K, m1 = 0.4041) was 1001.5 ± 0.11 kg/m3. The mass density (313.15 K, m1 = 0.4561) was 1002.64 ± 0.11 kg/m3.
